Measured values: the supplement of paper PMC10307832

Key:
Assay in all cases: relative viability (nuclei count vs DMSO), 5 days (fraction); higher = more cells survive
BMX-IN-1 + Linsitinib = compound: C=CC(=O)Nc1cc(-n2c(=O)ccc3cnc4ccc(-c5ccc(NS(C)(=O)=O)cc5)cc4c32)ccc1C [BMX-IN-1] + C[C@]1(O)C[C@@H](c2nc(-c3ccc4ccc(-c5ccccc5)nc4c3)c3c(N)nccn32)C1 [Linsitinib] (partner 1 µM)
Outline: (§1)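 Relative viability equals treated-well nuclei counts divided by vehicle-well nuclei counts. Counts came from 4× images of lung cancer cell lines grown in 1536-well plates for 5 days after pin-tool dosing on the day after seeding. Dosing used one drug alone or a fixed anchor-drug dose plus five library-drug doses (not always all listed) in √10 steps, and values are medians of duplicate plates.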

PAC-1 + AZD7762 = compound: C=CCc1cccc(/C=N/NC(=O)CN2CCN(Cc3ccccc3)CC2)c1O [PAC-1] + NC(=O)Nc1cc(-c2cccc(F)c2)sc1C(=O)N[C@H]1CCCNC1 [AZD7762] (partner 0.2 µM)
Outline: as §1

PAC-1 + Luminespib = compound: C=CCc1cccc(/C=N/NC(=O)CN2CCN(Cc3ccccc3)CC2)c1O [PAC-1] + CCNC(=O)c1noc(-c2cc(C(C)C)c(O)cc2O)c1-c1ccc(CN2CCOCC2)cc1 [Luminespib] (partner 0.01 µM)
Outline: as §1

PAC-1 + Pemetrexed = compound: C=CCc1cccc(/C=N/NC(=O)CN2CCN(Cc3ccccc3)CC2)c1O [PAC-1] + Nc1nc2[nH]cc(CCc3ccc(C(=O)N[C@@H](CCC(=O)O)C(=O)O)cc3)c2c(=O)[nH]1 [Pemetrexed] (partner 0.2 µM)
Outline: as §1

PAC-1 + OSI-027 = compound: C=CCc1cccc(/C=N/NC(=O)CN2CCN(Cc3ccccc3)CC2)c1O [PAC-1] + COc1cccc2cc(-c3nc([C@H]4CC[C@H](C(=O)O)CC4)n4ncnc(N)c34)[nH]c12 [OSI-027] (partner 0.5 µM)
Outline: as §1

Cell Line | relative viability (BMX-IN-1 + Linsitinib; first compound 0.02 µM) | relative viability (BMX-IN-1 + Linsitinib; first compound 0.2 µM) | relative viability (BMX-IN-1 + Linsitinib; first compound 0.6325 µM) | relative viability (BMX-IN-1 + Linsitinib; first compound 2 µM) | relative viability (PAC-1 + AZD7762; first compound 0.02 µM) | relative viability (PAC-1 + AZD7762; first compound 0.06325 µM) | relative viability (PAC-1 + AZD7762; first compound 0.2 µM) | relative viability (PAC-1 + AZD7762; first compound 2 µM) | relative viability (PAC-1 + Luminespib; first compound 0.02 µM) | relative viability (PAC-1 + Luminespib; first compound 0.06325 µM) | relative viability (PAC-1 + Luminespib; first compound 0.2 µM) | relative viability (PAC-1 + Luminespib; first compound 2 µM) | relative viability (PAC-1 + Pemetrexed; first compound 0.02 µM) | relative viability (PAC-1 + Pemetrexed; first compound 0.06325 µM) | relative viability (PAC-1 + Pemetrexed; first compound 0.2 µM) | relative viability (PAC-1 + Pemetrexed; first compound 2 µM) | relative viability (PAC-1 + OSI-027; first compound 0.02 µM) | relative viability (PAC-1 + OSI-027; first compound 0.06325 µM) | relative viability (PAC-1 + OSI-027; first compound 0.2 µM) | relative viability (PAC-1 + OSI-027; first compound 2 µM)
NCI-H23 | 0.614 | 0.606 | 0.471 | 0.548 | 0.242 | 0.349 | 0.244 | 0.314 | 0.231 | 0.223 | 0.237 | 0.219 | 0.623 | 0.705 | 0.817 | 0.775 | 0.629 | 0.493 | 0.589 | 0.65
NCI-H322M | 0.911 | 0.971 | 0.891 | 0.975 | 0.573 | 0.618 | 0.706 | 0.584 | 0.812 | 0.832 | 0.848 | 0.775 | 0.591 | 0.65 | 0.618 | 0.603 | 0.547 | 0.586 | 0.543 | 0.505
NCI-H358 | 1 | 0.732 | 0.816 | 0.806 | 0.51 | 0.507 | 0.55 | 0.402 | 0.411 | 0.404 | 0.32 | 0.265 | 0.165 | 0.161 | 0.187 | 0.183 | 0.7 | 0.632 | 0.693 | 0.631
NCI-H441 | 0.594 | 0.705 | 0.499 | 0.696 | 0.994 | 1.15 | 1.19 | 1.1 | 0.285 | 0.254 | 0.471 | 0.335 | 0.296 | 0.254 | 0.28 | 0.237 | 0.521 | 0.759 | 0.501 | 0.413
NCI-H460 | 1.04 | 1.07 | 1.45 | 0.777 | 0.548 | 0.674 | 0.602 | 0.656 | 0.035 | 0.0314 | 0.0281 | 0.0281 | 0.0683 | 0.0604 | 0.0685 | 0.0667 | 0.582 | 0.727 | 0.626 | 0.637
NCI-H596 | 1.12 | 1.21 | 1.02 | 0.936 | 1.11 | 1.2 | 1.09 | 1.13 | 0.913 | 0.975 | 0.929 | 1.08 | 0.435 | 0.471 | 0.477 | 0.54 | 0.733 | 0.745 | 0.695 | 0.719
NCI-H647 | 1.36 | 1.8 | 1.25 | 1.02 | 0.44 | 0.589 | 0.502 | 0.467 | 0.103 | 0.123 | 0.286 | 0.16 | 0.176 | 0.207 | 0.163 | 0.168 | 0.684 | 0.762 | 0.594 | 0.617
NCI-H650 | 0.839 | 1.09 | 1.02 | 0.858 | 0.945 | 0.943 | 1.02 | 0.951 | 0.701 | 0.929 | 0.882 | 0.748 | 0.893 | 0.931 | 0.968 | 1.03 | 0.47 | 0.515 | 0.468 | 0.535
